Experimental data from ChEMBL document CHEMBL2321714, “Novel Aza-resveratrol analogs: synthesis, characterization and anticancer activity against breast cancer cell lines” (Bioorg Med Chem Lett, 2013).
The source made the active and inactive calls. No cut-off for these calls is given here.

Experiments:
T47D [1] = test: Cytotoxicity against human T47D cells at 50 uM by MTT assay; format: functional
T47D [2] = test: Cytotoxicity against human T47D cells by MTT assay; format: functional, cell-based
MDA-MB-231 [3] = test: Cytotoxicity against human MDA-MB-231 cells at 50 uM by MTT assay; format: functional
MDA-MB-231 [4] = test: Cytotoxicity against human MDA-MB-231 cells by MTT assay; format: functional, cell-based
MCF-10A = test: Cytotoxicity against human MCF10A cells at 50 uM by MTT assay; format: cell-based
T47D [5] = test: Induction of autophagy in human T47D cells assessed as increase in Beclin-1 expression at 50 uM after 12 hrs by Western blot analysis; format: functional, cell-based
MDA-MB-231 [6] = test: Induction of autophagy in human MDA-MB-231 cells assessed as increase in Beclin-1 expression at 50 uM after 12 hrs by Western blot analysis; format: functional, cell-based

Row | Structure (SMILES) | Activity (T47D [1]) | IC50 (T47D [2]) [µM] | Activity (MDA-MB-231 [3]) | IC50 (MDA-MB-231 [4]) [µM] | Activity (MCF-10A) | Activity (T47D [5]) | Activity (MDA-MB-231 [6])
1 | Oc1ccc(/C=C/c2cc(O)cc(O)c2)cc1 [RESVERATROL] | 40% | 76 | 40% | 66 |  |  | 
2 | Oc1ccc(/C=N/c2ccc(Cl)cc2)cc1O | Active |  | Active |  | Non-toxic |  | 
3 | Oc1ccc(/C=N/c2ccc3[nH]ccc3c2)cc1O | 40% |  | inactive |  | Non-toxic |  | 
4 | Cc1ccc(/N=C/c2ccc(O)c(O)c2)cc1 | 40% | 32 | 65% | 21 | Non-toxic | Active | Active
5 | Oc1ccc(/N=C/c2ccc(O)c(O)c2)cc1 | 40% | 44 | 65% | 29 | Non-toxic | Active | Active
6 | Oc1ccc(/C=N/c2ccc(F)cc2)cc1O | Active |  | Active |  | Non-toxic |  | 
7 | COc1ccc(/N=C/c2ccc(O)c(O)c2)cc1 | Active |  | Active |  | Non-toxic |  | 
